From PMC11589483, “Preparation and anti-colon cancer effect of a novel curcumin analogue (CA8): in vivo and in vitro evaluation” (Frontiers in Pharmacology, 2024)
Read-outs that look alike come from different tables or passages of the source.

What was measured:
[1] = system: colon cancer cells Caco-2; test: MTT antiproliferative assay, Caco-2; format: cell-based, human; conditions: for SI Caco2: logarithm of ratio IC50 LO2 / IC50 cancer cells; for IC50: Homo sapiens, read-out: IC50 Caco2
Experimental: (§1) The human cancer cell lines A549, HepG2, MCF-7, Caco-2, and HeLa and the normal human liver cell line LO2 were all obtained from Shanghai Cell Bank of China. All cells were cultured in RPMI 1640 or DMEM supplemented with 10% fetal bovine serum, 100 U/mL penicillin, and 100 μg/mL streptomycin and incubated at 37°C under 5% CO2 (HEPA incubator class100 Thermo company). The medium was replaced three times a week. Cells used in all were in the exponential growth phase.
(§2) The cell inhibition rate was evaluated using the MTT assay. Briefly, cells were seeded in a 96-well plate at a density of 3–4 × 10^3 cells per well and incubated at 37°C for 24 h. The MCACs to be tested were dissolved in dimethyl sulfoxide (DMSO, Merck, Germany) and diluted to five concentrations (3.75, 7.5, 15, 30, 60 μM/L) with RPMI 1640 medium, with each dose analyzed in quadruplicate. The concentration of DMSO was always maintained below 1‰, a concentration that is nontoxic to cells. After incubation for 24 or 48 h, MTT reagent (5 mg/mL) was added to each well and the samples were incubated for 3 h at 37°C in the dark. The absorbance of formazan crystals dissolved in 150 µL of DMSO was measured at 570 nm using a microplate reader to identify the cytotoxic effect of the analogues.

[2] = system: lung cancer cells A549; test: MTT antiproliferative assay, A549; format: cell-based; conditions: Homo sapiens
Experimental: as §1, §2

[3] = system: breast cancer cells MCF-7; test: MTT antiproliferative assay, MCF-7; format: cell-based; conditions: Homo sapiens
Experimental: as §1, §2

[4] = system: normal human liver cell line LO2; test: MTT assay, normal liver cells LO2; format: cell-based
Experimental: as §1, §2

[5] = system: liver cancer cells HepG2; test: MTT antiproliferative assay, HepG2; format: cell-based; conditions: Homo sapiens
Experimental: as §1, §2

[6] = system: cervical cancer cells HeLa; test: MTT antiproliferative assay, HeLa; format: cell-based; conditions: Homo sapiens
Experimental: as §1, §2

[7] = Solubility in water by HPLC; format: physicochemical; conditions: 25°C, mass of solute dissolved at saturation in 100 g of solvent
Experimental: The solubility of the synthesized compounds in water was determined using high performance liquid chromatography (HPLC). First, 1.000 g of each compound was accurately weighed, placed in 100 g of water, and stirred at 25°C for a period of time. Then, the reaction system was allowed to stand for 1 h. The supernatant was quantitatively taken, diluted with methanol to volume, and centrifuged, and the solubility was determined using HPLC.

[8] = system: human cancer cell lines A549, HepG2, MCF-7, Caco-2, and HeLa; test: MTT assay, panel of human cancer cell lines (statements in words); format: cell-based; conditions: five cancer cell lines, after 24 h of treatment, compared to CU
Experimental: as §1, §2

[9] = system: Caco-2 xenograft tumors; test: In vivo anticancer activity, Caco-2 xenograft; conditions: Caco-2 xenograft; CA8 100 mg/kg, CU 100 mg/kg, tegafur 50 mg/kg, gavage every other day
Experimental: Twenty 5-week-old male BALB nude mice purchased from SPF (Beijing) Biotechnology Co., Ltd. were used for the in vivo pharmacodynamic experiment of CA8. Caco-2 cells (6 × 10^6 cells in 100 μL PBS) were harvested and subcutaneously injected into the right hip of the mice. Then, they were divided into four groups when the tumor volume reached 100 mm^3 and treated with saline, CU (100 mg/kg), tegafur (50 mg/kg), or CA8 (100 mg/kg) via gavage every other day. Tumor size and body weight were measured and recorded every other day. At the end of the experiment, the mice were sacrificed and tumors were harvested and weighed. Tumor volumes were calculated by measuring length (L) and width (W) according to the following formula: V = 0.5 × L × W^2. The tumor tissue was embedded in paraffin, cut into slices, stained with HE, and observed under a light microscope.

| Structure (SMILES) | IC50 ([1]; Caco-2, 24 h) | IC50 ([1]; Caco-2, 48 h) | IC50 ([2]; A549, 24 h) | IC50 ([2]; A549, 48 h) | IC50 ([3]; MCF7, 24 h) | IC50 ([3]; MCF7, 48 h) | IC50 ([5]; HepG2, 24 h) | IC50 ([5]; HepG2, 48 h) | IC50 ([6]; 24 h) | IC50 ([6]; 48 h) | Solubility [7] | SI Caco2 ([1]; 24 h) | SI Caco2 ([1]; 48 h) | IC50 ([4]; 24 h) | IC50 ([4]; 48 h) | cytotoxicity [8] | inhibitory effect on tumor growth [9] |
| --- | --- | --- | --- | --- | --- | --- | --- | --- | --- | --- | --- | --- | --- | --- | --- | --- | --- |
| COc1ccc(/C=C2\CCC/C(=C\c3ccc(OC)nc3)C2=O)cn1 [CA3] | > 60 µM | 47.4 ± 0.91 µM | > 60 µM | > 60 µM | > 60 µM | > 60 µM | 30.6 ± 5.99 µM | 15.5 ± 0.42 µM | 29.6 ± 2.57 µM | 38.3 ± 1.11 µM |  |  | > 0.1 | > 60 µM | > 60 µM | low toxicity |  |
| COc1ccc(/C=C/C(=O)/C=C/c2ccc(OC)nc2)cn1 [CA2] | 15.8 ± 0.3 µM | 10.4 ± 0.7 µM | 25.9 ± 1.3 µM | 16.1 ± 0.8 µM | 21.3 ± 3.1 µM | 16.8 ± 0.6 µM | 25.2 ± 1 µM | 19.8 ± 0.4 µM | 18.1 ± 0.8 µM | 18.1 ± 0.8 µM | 0.42 mg/100g | 0.29 | 0.23 | 31 ± 0.41 µM | 17.5 ± 1.09 µM |  |  |
| COc1ccc(/C=C/C(=O)CC(=O)/C=C/c2ccc(OC)nc2)cn1 [CA1] | > 60 µM | > 60 µM | > 60 µM | 28.6 ± 2.2 µM | > 60 µM | 47.3 ± 2.1 µM | > 60 µM | 46.9 ± 2.6 µM | > 60 µM | 56.5 ± 3.7 µM | 0.07 mg/100g |  |  | > 60 µM | 57.6 ± 4.83 µM | low toxicity |  |
| COc1ccc(/C=C2\CN(C)C/C(=C\c3ccc(OC)nc3)C2=O)cn1 [CA4] | 7.7 ± 1.8 µM | 9.4 ± 1 µM | 22.9 ± 2.7 µM | 12.5 ± 0.2 µM | 17 ± 1.6 µM | 7.8 ± 0.7 µM | 2.63 ± 0.38 µM | 1.95 ± 0.2 µM | 4.6 ± 0.5 µM | 2.7 ± 0.5 µM | 2.63 mg/100g | −0.10 | −0.59 | 6.11 ± 0.33 µM | 2.5 ± 0.13 µM |  |  |
| O=c1[nH]c(=O)n(C2CCCO2)cc1F (stereo not shown) [tegafur, reference compound] |  |  |  |  |  |  |  |  |  |  |  |  |  |  |  |  | CA8 > tegafur > CU |
| COc1ccc(/C=C2\CN(C(C)C)C/C(=C\c3ccc(OC)nc3)C2=O)cn1 [CA5] | 14.7 ± 0.73 µM | 4.87 ± 0.19 µM | 28 ± 0.77 µM | 34.7 ± 1.89 µM | 30.1 ± 3.36 µM | 4.94 ± 1.42 µM | > 60 µM | 2.18 ± 0.4 µM | 2.35 ± 0.09 µM | 1.81 ± 0.36 µM | 0.22 mg/100g | −0.17 | 0.15 | 9.8 ± 0.51 µM | 6.9 ± 0.46 µM |  |  |

Further lines, with some results ahead:

| IC50 ([1]; Caco-2, 24 h) | IC50 ([1]; Caco-2, 48 h) | IC50 ([2]; A549, 24 h) | IC50 ([2]; A549, 48 h) | IC50 ([3]; MCF7, 24 h) | IC50 ([3]; MCF7, 48 h) | IC50 ([5]; HepG2, 24 h) | IC50 ([5]; HepG2, 48 h) | IC50 ([6]; 24 h) | IC50 ([6]; 48 h) | Solubility [7] | Structure (SMILES) | SI Caco2 ([1]; 24 h) | SI Caco2 ([1]; 48 h) | IC50 ([4]; 24 h) | IC50 ([4]; 48 h) | cytotoxicity [8] | inhibitory effect on tumor growth [9] |
| --- | --- | --- | --- | --- | --- | --- | --- | --- | --- | --- | --- | --- | --- | --- | --- | --- | --- |
| 44.4 ± 7.38 µM | 7.44 ± 0.49 µM | 36.1 ± 4.76 µM | 43.8 ± 5.13 µM | 54.2 ± 17.3 µM | 18.2 ± 0.52 µM | 22.7 ± 1.37 µM | 2.71 ± 0.49 µM | 5.26 ± 0.49 µM | 1.26 ± 0.18 µM | 3.29 mg/100g | Cc1cc(/C=C2\CN(C(C)C)C/C(=C\c3cc(C)c(O)c(C)c3)C2=O)cc(C)c1O [CA7] | −0.05 | 0.05 | 39.2 ± 1.67 µM | 8.4 ± 0.41 µM |  |  |
| > 60 µM | > 60 µM | > 60 µM | > 60 µM | > 60 µM | > 60 µM | 50.4 ± 15.1 µM | 9.28 ± 0.68 µM | > 60 µM | > 60 µM | 15.04 mg/100g | Cc1cc(/C=C2\CNC/C(=C\c3cc(C)c(O)c(C)c3)C2=O)cc(C)c1O [CA6] |  |  | > 60 µM | > 60 µM | low toxicity |  |
| 3 ± 0.6 µM | 2.09 ± 0.32 µM | 21.4 ± 2.7 µM | 11.7 ± 0.5 µM | 22.2 ± 1.8 µM | 10.9 ± 1.3 µM | 11.2 ± 0.5 µM | 10.7 ± 1.6 µM | 8.4 ± 0.2 µM | 4.3 ± 0.1 µM | 1.37 mg/100g | COc1cc(/C=C2\CN(C)C/C(=C\c3ccc(OC4CCCCO4)c(OC)c3)C2=O)ccc1OC1CCCCO1 (stereo not shown) [CA9] | 0.70 | 0.38 | 15 ± 0.95 µM | 5 ± 0.09 µM |  |  |
